Several values for one entry are separate records, joined by “and”; a condition that tells them apart may be missing. Equal entries are not always repeated.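 1) Cells in 96-well plates. 2) Compound, 48 h, 5 concentrations. 3) Linear interpolation between surrounding doses. 4) Unreached endpoint = highest concentration. The concentration for 50% growth inhibition is given as GI50. TGI: concentration producing complete growth inhibition.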
What was measured:
Test in all cases: NCI-60 cell line screen, 48 h
SNB-19 CNS = system: SNB-19 CNS
HCC-2998 colon = system: HCC-2998 colon
OVCAR-4 ovarian = system: OVCAR-4 ovarian
HL-60(TB) leukemia = system: HL-60(TB) leukemia
U251 CNS = system: U251 CNS
TK-10 renal = system: TK-10 renal
KM12 colon = system: KM12 colon
T-47D breast = system: T-47D breast

c1ccc2c3c([nH]c2c1)C(c1ccc(C2NCCc4c2[nH]c2ccccc42)cc1)NCC3 (stereo not given)
GI50 (SNB-19 CNS): 1.73 µM | TGI (SNB-19 CNS): 3.54 µM | GI50 (HCC-2998 colon): 0.274 µM | TGI (HCC-2998 colon): 1.28 µM | GI50 (OVCAR-4 ovarian): 1.14 µM | TGI (OVCAR-4 ovarian): 2.53 µM | GI50 (HL-60(TB) leukemia): 1.13 µM | TGI (HL-60(TB) leukemia): 2.81 µM | GI50 (U251 CNS): 0.321 µM | TGI (U251 CNS): 1.1 µM | GI50 (TK-10 renal): 1.98 µM | TGI (TK-10 renal): 4.09 µM | GI50 (KM12 colon): 1.07 µM | TGI (KM12 colon): 2.36 µM | GI50 (T-47D breast): 1.31 µM | TGI (T-47D breast): 3.06 µM

CC[n+]1c(/C=C/C=C2\N(C)c3ccccc3C2(C)C)sc2ccccc21
GI50 (SNB-19 CNS): 4.1 µM | TGI (SNB-19 CNS): 7.8 µM | GI50 (HCC-2998 colon): 3.86 µM | TGI (HCC-2998 colon): 7.81 µM | GI50 (OVCAR-4 ovarian): 3.85 µM | TGI (OVCAR-4 ovarian): 7.19 µM | GI50 (HL-60(TB) leukemia): 5.16 µM | TGI (HL-60(TB) leukemia): 12.1 µM | GI50 (U251 CNS): 3.85 µM | TGI (U251 CNS): 7.61 µM | GI50 (TK-10 renal): 5.06 µM | TGI (TK-10 renal): 13.2 µM | GI50 (KM12 colon): 4.46 µM | TGI (KM12 colon): 8.7 µM | GI50 (T-47D breast): 4.65 µM | TGI (T-47D breast): 11.8 µM

CC1=C(Nc2ccc(N3CCN(C)CC3)cc2)C(=O)c2cncnc2C1=O
GI50 (SNB-19 CNS): 17.2 µM | TGI (SNB-19 CNS): 37.2 µM | GI50 (HCC-2998 colon): 17.4 µM | TGI (HCC-2998 colon): 36 µM | GI50 (OVCAR-4 ovarian): 1.09 µM | TGI (OVCAR-4 ovarian): 2.28 µM | GI50 (HL-60(TB) leukemia): 2.5 µM | TGI (HL-60(TB) leukemia): 6.11 µM | GI50 (TK-10 renal): 28.5 µM | TGI (TK-10 renal): 58.1 µM | GI50 (KM12 colon): 10.1 µM | TGI (KM12 colon): 30.4 µM | GI50 (T-47D breast): 1.78 µM | TGI (T-47D breast): 4.26 µM

COc1cc(-c2nn(-c3cccc(NC(=O)c4ccc(Cl)c(C(F)(F)F)c4)c3)cc2-c2ccncc2)ccc1Cl
GI50 (SNB-19 CNS): 7.64 µM | TGI (SNB-19 CNS): > 32.5 µM | GI50 (HCC-2998 colon): 9.89 µM | TGI (HCC-2998 colon): > 32.5 µM | GI50 (OVCAR-4 ovarian): 6.26 µM | TGI (OVCAR-4 ovarian): > 32.5 µM | GI50 (HL-60(TB) leukemia): 2.56 µM | TGI (HL-60(TB) leukemia): > 32.5 µM | GI50 (U251 CNS): 2.39 µM | TGI (U251 CNS): > 32.5 µM | GI50 (TK-10 renal): 12.9 µM | TGI (TK-10 renal): > 32.5 µM | GI50 (KM12 colon): 1.6 µM | TGI (KM12 colon): > 32.5 µM | GI50 (T-47D breast): 1.3 µM | TGI (T-47D breast): > 32.5 µM

CC[C@H](C)[C@H](NC(=O)[C@H]1CCCCN1C)C(=O)N(C)[C@H](C[C@@H](OC(C)=O)c1nc(C(=O)N[C@@H](Cc2ccccc2)C[C@H](C)C(=O)O)cs1)C(C)C
GI50 (SNB-19 CNS): 0.000595 µM and 0.00165 µM | TGI (SNB-19 CNS): > 16.5 µM | GI50 (HCC-2998 colon): 0.0013 µM and 0.00165 µM | TGI (HCC-2998 colon): > 16.5 µM | TGI (OVCAR-4 ovarian): > 16.5 µM | GI50 (HL-60(TB) leukemia): 0.000394 µM and < 0.00165 µM | TGI (HL-60(TB) leukemia): 0.00267 µM and < 0.00165 µM | GI50 (U251 CNS): 0.000481 µM and 0.00165 µM | TGI (U251 CNS): > 16.5 µM | GI50 (KM12 colon): 0.000269 µM and 0.00165 µM | GI50 (T-47D breast): > 16.5 µM | TGI (T-47D breast): > 16.5 µM

COc1cc2c3c(n(C)c(=O)c2cc1OC)-c1ccc(C#N)cc1C3=O
GI50 (SNB-19 CNS): > 100 µM | TGI (SNB-19 CNS): > 100 µM | GI50 (HCC-2998 colon): > 100 µM | TGI (HCC-2998 colon): > 100 µM | GI50 (OVCAR-4 ovarian): > 100 µM | TGI (OVCAR-4 ovarian): > 100 µM | GI50 (U251 CNS): 84.9 µM | TGI (U251 CNS): > 100 µM | GI50 (TK-10 renal): > 100 µM | TGI (TK-10 renal): > 100 µM | GI50 (KM12 colon): > 100 µM | TGI (KM12 colon): > 100 µM | GI50 (T-47D breast): 91.9 µM | TGI (T-47D breast): > 100 µM

COc1ccc(N=N/C(C(=O)C(F)(F)F)=C(\O)c2ccc(Cl)cc2)cc1
GI50 (SNB-19 CNS): 16.5 µM | TGI (SNB-19 CNS): > 100 µM | GI50 (HCC-2998 colon): 4.01 µM | TGI (HCC-2998 colon): 16.2 µM | GI50 (OVCAR-4 ovarian): 21.6 µM | TGI (OVCAR-4 ovarian): > 100 µM | GI50 (HL-60(TB) leukemia): 7.11 µM | TGI (HL-60(TB) leukemia): 39.4 µM | GI50 (U251 CNS): 4.55 µM | TGI (U251 CNS): 27.8 µM | GI50 (TK-10 renal): 18.3 µM | TGI (TK-10 renal): 61.4 µM | GI50 (KM12 colon): 2.61 µM | TGI (KM12 colon): 38.7 µM | GI50 (T-47D breast): 5.98 µM | TGI (T-47D breast): 64.9 µM

O=C1NC(=NCCCc2ccccc2)S/C1=C\c1ccc2ncccc2c1
GI50 (SNB-19 CNS): 3.69 µM | TGI (SNB-19 CNS): > 22.4 µM | GI50 (HCC-2998 colon): 8.09 µM | TGI (HCC-2998 colon): > 25 µM | GI50 (OVCAR-4 ovarian): 3.72 µM | TGI (OVCAR-4 ovarian): 13.6 µM | GI50 (HL-60(TB) leukemia): 5.49 µM | TGI (HL-60(TB) leukemia): 16 µM | GI50 (U251 CNS): 2.9 µM | TGI (U251 CNS): 10.3 µM | GI50 (TK-10 renal): 4.15 µM | TGI (TK-10 renal): 10.5 µM | GI50 (KM12 colon): 8.84 µM | TGI (KM12 colon): > 25 µM | GI50 (T-47D breast): 4.73 µM | TGI (T-47D breast): 12.3 µM

CSC1NC(c2ccc(Cl)cc2)=C(C#N)C(=O)N1C1OCC(OC(C)=O)C(OC(C)=O)C1OC(C)=O (stereo not given)
TGI (SNB-19 CNS): > 100 µM | TGI (HCC-2998 colon): > 100 µM | TGI (OVCAR-4 ovarian): > 100 µM | TGI (U251 CNS): > 100 µM | TGI (TK-10 renal): > 100 µM | TGI (KM12 colon): > 100 µM

O=C(CC(Cl)=C(Cl)Cl)c1cccc(Cl)c1Cl
GI50 (SNB-19 CNS): > 100 µM | TGI (SNB-19 CNS): > 100 µM | GI50 (OVCAR-4 ovarian): > 100 µM | TGI (OVCAR-4 ovarian): > 100 µM | GI50 (HL-60(TB) leukemia): 64.8 µM | TGI (HL-60(TB) leukemia): > 100 µM | GI50 (U251 CNS): 46.3 µM | TGI (U251 CNS): > 100 µM | GI50 (TK-10 renal): 28.2 µM | TGI (TK-10 renal): > 100 µM | GI50 (KM12 colon): > 100 µM | TGI (KM12 colon): > 100 µM | GI50 (T-47D breast): 42.5 µM | TGI (T-47D breast): > 100 µM

CCN1CCN(C(=O)[C@]23CCC(C)(C)C[C@@H]2C2=CC[C@@H]4[C@@]5(C)C/C(=C/c6ccncc6)C(=O)C(C)(C)[C@@H]5CC[C@@]4(C)[C@]2(C)CC3)CC1
GI50 (SNB-19 CNS): 1.48 µM | TGI (SNB-19 CNS): 2.86 µM | GI50 (HCC-2998 colon): 1.47 µM | TGI (HCC-2998 colon): 2.89 µM | GI50 (OVCAR-4 ovarian): 1.54 µM | TGI (OVCAR-4 ovarian): 3.2 µM | GI50 (HL-60(TB) leukemia): 1.04 µM | TGI (HL-60(TB) leukemia): 4.4 µM | GI50 (U251 CNS): 1.42 µM | TGI (U251 CNS): 2.87 µM | GI50 (TK-10 renal): 1.95 µM | TGI (TK-10 renal): 3.47 µM | GI50 (KM12 colon): 1.47 µM | TGI (KM12 colon): 2.98 µM

CCc1nc(N)nc(N)c1-c1ccc(N2CCNCC2)cc1
TGI (SNB-19 CNS): > 93.3 µM | TGI (HCC-2998 colon): > 100 µM | TGI (OVCAR-4 ovarian): > 100 µM | TGI (HL-60(TB) leukemia): > 71 µM | TGI (U251 CNS): > 100 µM | TGI (TK-10 renal): > 100 µM | TGI (KM12 colon): > 100 µM | TGI (T-47D breast): > 100 µM

COC(=O)[C@H]1CCCN1C(=O)[C@H]1CCCN1C(=O)[C@H](Cc1c[nH]c2ccccc12)NC(=S)Nc1cc(C(F)(F)F)cc(C(F)(F)F)c1
GI50 (SNB-19 CNS): 9.49 µM | TGI (SNB-19 CNS): > 100 µM | GI50 (HCC-2998 colon): 2.42 µM | TGI (HCC-2998 colon): 5.96 µM | GI50 (OVCAR-4 ovarian): 6.49 µM | TGI (OVCAR-4 ovarian): > 100 µM | GI50 (HL-60(TB) leukemia): 4.19 µM | TGI (HL-60(TB) leukemia): 57.2 µM | GI50 (U251 CNS): 4.21 µM | TGI (U251 CNS): 61.9 µM | GI50 (TK-10 renal): 12.7 µM | TGI (TK-10 renal): > 100 µM | GI50 (KM12 colon): 4.47 µM | TGI (KM12 colon): > 100 µM | GI50 (T-47D breast): 3.72 µM | TGI (T-47D breast): > 100 µM

c1cc2c(cn1)Nc1ccncc1S2
GI50 (SNB-19 CNS): 39 µM | TGI (SNB-19 CNS): > 100 µM | GI50 (HCC-2998 colon): 49.8 µM | TGI (HCC-2998 colon): > 100 µM | GI50 (OVCAR-4 ovarian): > 100 µM | TGI (OVCAR-4 ovarian): > 100 µM | GI50 (HL-60(TB) leukemia): 20.5 µM | TGI (HL-60(TB) leukemia): 68.5 µM | GI50 (U251 CNS): 44.6 µM | TGI (U251 CNS): > 100 µM | GI50 (TK-10 renal): 42.7 µM | TGI (TK-10 renal): > 100 µM | GI50 (KM12 colon): 32.3 µM | TGI (KM12 colon): > 100 µM | GI50 (T-47D breast): 34.8 µM | TGI (T-47D breast): > 100 µM

O=C1/C=C/[C@@H](O)[C@@H]2C[C@@H](O)C[C@H]2/C=C/CCC[C@H](C(F)(F)F)O1
GI50 (SNB-19 CNS): 6.98 µM | TGI (SNB-19 CNS): > 100 µM | GI50 (HCC-2998 colon): 1.14 µM | TGI (HCC-2998 colon): 9.2 µM | GI50 (OVCAR-4 ovarian): 0.139 µM | TGI (OVCAR-4 ovarian): > 100 µM | GI50 (HL-60(TB) leukemia): 0.243 µM | TGI (HL-60(TB) leukemia): 0.605 µM | GI50 (U251 CNS): 1.7 µM | TGI (U251 CNS): > 100 µM | GI50 (TK-10 renal): 0.0888 µM | TGI (TK-10 renal): 0.78 µM | GI50 (KM12 colon): 1.54 µM | TGI (KM12 colon): 16.2 µM | GI50 (T-47D breast): 0.184 µM | TGI (T-47D breast): 0.52 µM
